Results: patent US8536195B2, “Bicyclic derivatives as modulators of ion channels” (Vertex Pharmaceuticals Incorporated, priority 2005, dated 2013)

Target: T1, NaV1.3 (Homo sapiens, UniProt Q9NY46)
Experiment: not given
Conditions: read-out: TTX IC50; cited from earlier work
Target sequence in this assay (Q9NY46 whole entry, looked up): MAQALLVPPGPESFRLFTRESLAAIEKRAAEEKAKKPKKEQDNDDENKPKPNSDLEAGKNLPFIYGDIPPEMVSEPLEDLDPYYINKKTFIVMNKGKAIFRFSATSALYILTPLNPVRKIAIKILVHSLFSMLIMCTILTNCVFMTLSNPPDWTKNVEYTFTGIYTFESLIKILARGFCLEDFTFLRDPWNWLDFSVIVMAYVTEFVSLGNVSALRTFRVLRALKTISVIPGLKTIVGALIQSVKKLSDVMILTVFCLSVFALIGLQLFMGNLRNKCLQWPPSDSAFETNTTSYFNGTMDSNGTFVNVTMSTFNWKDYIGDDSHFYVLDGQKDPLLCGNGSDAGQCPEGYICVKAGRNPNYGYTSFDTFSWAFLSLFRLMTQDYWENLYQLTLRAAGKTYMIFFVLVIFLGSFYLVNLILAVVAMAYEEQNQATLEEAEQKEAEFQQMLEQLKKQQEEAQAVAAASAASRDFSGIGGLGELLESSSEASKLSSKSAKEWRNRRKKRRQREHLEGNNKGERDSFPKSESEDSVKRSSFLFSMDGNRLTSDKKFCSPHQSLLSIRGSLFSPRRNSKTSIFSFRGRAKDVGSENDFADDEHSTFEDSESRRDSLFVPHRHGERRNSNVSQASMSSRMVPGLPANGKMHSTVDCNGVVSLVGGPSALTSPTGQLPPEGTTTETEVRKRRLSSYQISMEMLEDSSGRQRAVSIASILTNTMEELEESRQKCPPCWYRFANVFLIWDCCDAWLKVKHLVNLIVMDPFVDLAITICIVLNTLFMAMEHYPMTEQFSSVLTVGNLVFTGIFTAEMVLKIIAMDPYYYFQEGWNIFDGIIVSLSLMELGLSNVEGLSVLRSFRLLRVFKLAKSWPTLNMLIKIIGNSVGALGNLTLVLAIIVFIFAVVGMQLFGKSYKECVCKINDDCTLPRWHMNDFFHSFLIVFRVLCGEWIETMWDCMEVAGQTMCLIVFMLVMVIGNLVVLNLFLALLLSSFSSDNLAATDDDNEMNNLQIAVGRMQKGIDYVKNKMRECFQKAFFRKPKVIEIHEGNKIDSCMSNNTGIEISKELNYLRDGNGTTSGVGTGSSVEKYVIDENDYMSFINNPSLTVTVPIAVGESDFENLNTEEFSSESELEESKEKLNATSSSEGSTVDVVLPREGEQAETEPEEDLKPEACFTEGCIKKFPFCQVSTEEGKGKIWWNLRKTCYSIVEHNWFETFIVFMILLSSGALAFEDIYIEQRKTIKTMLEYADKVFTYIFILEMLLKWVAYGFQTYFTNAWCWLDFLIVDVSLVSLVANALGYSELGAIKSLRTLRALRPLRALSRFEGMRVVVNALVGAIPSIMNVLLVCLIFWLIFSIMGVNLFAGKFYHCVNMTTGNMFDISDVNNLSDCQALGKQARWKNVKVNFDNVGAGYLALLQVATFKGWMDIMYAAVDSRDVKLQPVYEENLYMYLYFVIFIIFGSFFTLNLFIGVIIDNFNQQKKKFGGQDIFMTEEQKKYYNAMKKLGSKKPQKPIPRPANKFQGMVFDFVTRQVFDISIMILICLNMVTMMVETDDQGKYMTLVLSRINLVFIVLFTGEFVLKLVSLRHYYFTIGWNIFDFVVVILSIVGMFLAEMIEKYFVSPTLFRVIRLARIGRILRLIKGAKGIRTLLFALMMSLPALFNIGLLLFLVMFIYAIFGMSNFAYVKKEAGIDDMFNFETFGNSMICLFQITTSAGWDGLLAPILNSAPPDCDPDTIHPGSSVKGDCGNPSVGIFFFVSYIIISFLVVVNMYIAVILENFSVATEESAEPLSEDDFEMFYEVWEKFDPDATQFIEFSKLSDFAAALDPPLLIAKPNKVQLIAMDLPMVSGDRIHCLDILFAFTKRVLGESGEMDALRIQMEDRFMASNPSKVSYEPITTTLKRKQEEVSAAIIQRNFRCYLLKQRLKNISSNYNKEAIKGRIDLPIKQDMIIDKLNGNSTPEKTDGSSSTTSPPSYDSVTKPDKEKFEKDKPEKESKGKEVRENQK

| SMILES | IC50 |
| --- | --- |
| NC1=N[C@H](O)[C@H]2[C@H]3O[C@]4(O)O[C@@H]([C@@H](O)[C@@]2(N1)[C@@H]4O)[C@]3(O)CO [TTX, tetrodotoxin] | 0.015 µM |

Target: NaV1.8 (Homo sapiens, UniProt Q9Y5Y9)
Experiment: not given
Conditions: read-out: TTX IC50; cited from earlier work

Chain of NaV1.8 (Q9Y5Y9 whole entry, looked up): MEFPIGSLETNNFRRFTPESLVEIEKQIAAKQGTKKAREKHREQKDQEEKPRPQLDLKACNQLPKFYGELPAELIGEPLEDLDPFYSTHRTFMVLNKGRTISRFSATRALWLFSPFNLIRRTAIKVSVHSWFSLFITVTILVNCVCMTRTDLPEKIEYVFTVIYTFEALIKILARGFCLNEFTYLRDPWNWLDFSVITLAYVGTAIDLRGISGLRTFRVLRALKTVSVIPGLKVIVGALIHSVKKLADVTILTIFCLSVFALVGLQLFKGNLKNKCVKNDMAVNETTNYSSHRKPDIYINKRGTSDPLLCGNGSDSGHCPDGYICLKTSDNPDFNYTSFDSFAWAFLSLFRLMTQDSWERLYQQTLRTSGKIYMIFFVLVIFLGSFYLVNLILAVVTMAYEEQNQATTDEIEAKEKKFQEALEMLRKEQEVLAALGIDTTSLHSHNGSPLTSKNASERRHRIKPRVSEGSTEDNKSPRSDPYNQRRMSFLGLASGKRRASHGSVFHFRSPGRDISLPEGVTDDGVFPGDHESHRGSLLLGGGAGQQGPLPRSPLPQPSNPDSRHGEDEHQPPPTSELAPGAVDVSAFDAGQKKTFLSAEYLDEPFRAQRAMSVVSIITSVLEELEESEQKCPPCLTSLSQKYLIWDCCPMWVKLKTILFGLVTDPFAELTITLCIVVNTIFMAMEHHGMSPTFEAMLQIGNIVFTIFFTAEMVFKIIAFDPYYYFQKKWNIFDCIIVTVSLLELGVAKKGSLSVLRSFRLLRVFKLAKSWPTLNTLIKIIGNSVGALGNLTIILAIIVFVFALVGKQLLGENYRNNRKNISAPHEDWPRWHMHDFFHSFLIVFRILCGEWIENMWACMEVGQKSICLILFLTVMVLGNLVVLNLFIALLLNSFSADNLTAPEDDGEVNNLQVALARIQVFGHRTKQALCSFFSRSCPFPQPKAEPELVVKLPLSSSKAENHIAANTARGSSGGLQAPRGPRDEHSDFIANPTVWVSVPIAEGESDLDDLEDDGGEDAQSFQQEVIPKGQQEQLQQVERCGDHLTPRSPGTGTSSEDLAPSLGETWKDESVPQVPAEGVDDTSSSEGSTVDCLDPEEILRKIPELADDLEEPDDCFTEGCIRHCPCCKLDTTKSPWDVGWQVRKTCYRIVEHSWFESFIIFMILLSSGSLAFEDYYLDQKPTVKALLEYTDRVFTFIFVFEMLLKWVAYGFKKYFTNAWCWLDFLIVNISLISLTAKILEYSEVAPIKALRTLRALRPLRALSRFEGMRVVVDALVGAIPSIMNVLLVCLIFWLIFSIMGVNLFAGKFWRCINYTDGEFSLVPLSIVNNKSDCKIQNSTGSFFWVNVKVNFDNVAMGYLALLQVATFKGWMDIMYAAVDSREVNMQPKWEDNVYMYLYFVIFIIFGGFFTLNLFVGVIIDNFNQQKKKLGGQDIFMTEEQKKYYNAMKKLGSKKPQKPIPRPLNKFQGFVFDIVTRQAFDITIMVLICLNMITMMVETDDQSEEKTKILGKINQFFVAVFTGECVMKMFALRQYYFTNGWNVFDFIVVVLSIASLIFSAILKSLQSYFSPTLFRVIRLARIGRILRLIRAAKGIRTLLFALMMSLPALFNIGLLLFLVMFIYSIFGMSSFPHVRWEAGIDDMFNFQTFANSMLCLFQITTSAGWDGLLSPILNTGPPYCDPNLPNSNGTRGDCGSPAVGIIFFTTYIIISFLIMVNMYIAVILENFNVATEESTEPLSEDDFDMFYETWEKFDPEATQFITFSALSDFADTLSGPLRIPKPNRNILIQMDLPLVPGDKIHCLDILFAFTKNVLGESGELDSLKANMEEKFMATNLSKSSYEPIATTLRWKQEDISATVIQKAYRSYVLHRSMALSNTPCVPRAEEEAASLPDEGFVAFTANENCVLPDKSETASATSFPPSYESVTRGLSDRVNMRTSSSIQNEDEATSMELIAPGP

| SMILES | IC50 |
| --- | --- |
| NC1=N[C@H](O)[C@H]2[C@H]3O[C@]4(O)O[C@@H]([C@@H](O)[C@@]2(N1)[C@@H]4O)[C@]3(O)CO [TTX, tetrodotoxin] | > 50 µM |

Tested on: not given
Experiment: not given
Conditions: neuropathic pain, modest efficacy; cited from earlier work

| SMILES | share of patients in which it works |
| --- | --- |
| NCC1(CC(=O)O)CCCCC1 [Gabapentin] | 60% |

Target: T1, NaV1.3
Experiment: Activity against NaV 1.3 channel (VIPR optical membrane potential assay with electrical stimulation)
Format: cell-based
Parameters: expressed in transfected cells; host or cells: HEK293
Conditions: not given
Protocol: Compounds of the invention are useful as antagonists of voltage-gated sodium ion channels. Antagonist properties of test compounds were assessed as follows. Cells expressing the NaV of interest were placed into microtiter plates. After an incubation period, the cells were stained with fluorescent dyes sensitive to the transmembrane potential. The test compounds were added to the microtiter plate. The cells were stimulated with either a chemical or electrical means to evoke a NaV dependent membrane potential change from unblocked channels, which was detected and measured with trans-membrane potential-sensitive dyes. Antagonists were detected as a decreased membrane potential response to the stimulus. The optical membrane potential assay utilized voltage-sensitive FRET sensors described by Gonzalez and Tsien (See Gonzalez, J. E. and R. Y. Tsien (1995) “Voltage sensing by fluorescence resonance energy transfer in single cells” Biophys J 69(4): 1272-80, and Gonzalez, J. E. and R. Y. Tsien (1997) “Improved indicators of cell membrane potential that use fluorescence resonance energy transfer” Chem Biol 4(4): 269-77) in combination with instrumentation for measuring fluorescence changes such as the Voltage/Ion Probe Reader (VIPR®) (See Gonzalez, J. E., K. Oades, et al. (1999) “Cell-based assays and instrumentation for screening ion-channel targets” Drug Discov Today 4(9): 431-439).
The following is an example of how NaV1.3 inhibition activity is measured using the optical membrane potential method #2. Other subtypes are performed in an analogous mode in a cell line expressing the NaV of interest.
HEK293 cells stably expressing NaV1.3 are plated into 96-well microtiter plates. After an appropriate incubation period, the cells are stained with the voltage sensitive dyes CC2-DMPE/DiSBAC2(3) as follows.
2×CC2-DMPE=20 μM CC2-DMPE: 10 mM CC2-DMPE is vortexed with an equivalent volume of 10% pluronic, followed by vortexing in required amount of HBSS containing 10 mM HEPES. Each cell plate will require 5 mL of 2×CC2-DMPE. 50 μL of 2×CC2-DMPE is to wells containing washed cells, resulting in a 10 μM final staining concentration. The cells are stained for 30 minutes in the dark at RT.
2×DISBAC2(3) with ABSC1=6 μM DISBAC2(3) and 1 mM ABSC1: The required amount of 10 mM DISBAC2(3) is added to a 50 ml conical tube and mixed with 1 μL 10% pluronic for each mL of solution to be made and vortexed together. Then HBSS/HEPES is added to make up 2× solution. Finally, the ABSC1 is added.
The 2×DiSBAC2(3) solution can be used to solvate compound plates. Note that compound plates are made at 2× drug concentration. Wash stained plate again, leaving residual volume of 50 μL. Add 50 uL/well of the 2×DiSBAC2(3) w/ABSC1. Stain for 30 minutes in the dark at RT.
The electrical stimulation instrument and methods of use are described in ION Channel Assay Methods PCT/US01/21652, herein incorporated by reference. The instrument comprises a microtiter plate handler, an optical system for exciting the coumarin dye while simultaneously recording the coumarin and oxonol emissions, a waveform generator, a current- or voltage-controlled amplifier, and a device for inserting electrodes in well. Under integrated computer control, this instrument passes user-programmed electrical stimulus protocols to cells within the wells of the microtiter plate.
Insert or use electrodes into each well to be assayed.
Use the current-controlled amplifier to deliver stimulation wave pulses for 3 s. Two seconds of pre-stimulus recording are performed to obtain the un-stimulated intensities. Five seconds of post-stimulation recording are performed to examine the relaxation to the resting state.
Data are analyzed and reported as normalized ratios of background-subtracted emission intensities measured in the 460 nm and 580 nm channels. Background intensities are then subtracted from each assay channel. […]
Target sequence in this assay (Q9NY46 whole entry): as the sequence (Q9NY46 whole entry, looked up) above

| SMILES | IC50 |
| --- | --- |
| O=C1Nc2ccc(S(=O)(=O)Nc3nncs3)cc2CC1CCOc1ccc(Cl)cc1Cl (stereo not shown) [Compound 1] | 5 to 20 µM |
| O=C1Nc2ccc(S(=O)(=O)Nc3nnc(-c4ccccc4)s3)cc2CC1CCOc1ccc(Cl)cc1Cl (stereo not shown) [Compound 2] | 5 to 20 µM |
| O=C1Nc2ccc(S(=O)(=O)Nc3nccs3)cc2CC1CCOc1ccc(Cl)cc1Cl (stereo not shown) [Compound 3] | 5 to 20 µM |
| Cc1cc(C)nc(NS(=O)(=O)c2ccc3c(c2)CC(CCOc2ccc(Cl)cc2Cl)C(=O)N3)n1 (stereo not shown) [Compound 4] | 5 to 20 µM |
| O=C1Nc2ccc(S(=O)(=O)Nc3nc4ccccc4s3)cc2CC1CCOc1ccc(Cl)cc1Cl (stereo not shown) [Compound 5, 3-[2-(2,4-Dichloro-phenoxy)-ethyl]-2-oxo-1,2,3,4-tetrahydro-quinoline-6-sulfonic acid benzothiazol-2-ylamide] | 5 to 20 µM |
| O=C1Nc2ccc(S(=O)(=O)Nc3cnsn3)cc2CC1CCOc1ccc(Cl)cc1Cl (stereo not shown) [Compound 6] | 5 to 20 µM |
| Cc1cnc(NS(=O)(=O)c2ccc3c(c2)CC(CCOc2ccc(Cl)cc2Cl)C(=O)N3)s1 (stereo not shown) [Compound 7] | 5 to 20 µM |
| O=C1Nc2ccc(S(=O)(=O)Nc3ccccn3)cc2CC1CCOc1ccc(Cl)cc1Cl (stereo not shown) [Compound 8] | 5 to 20 µM |
| O=C1Nc2ccc(S(=O)(=O)Nc3nnc(C4CC4)s3)cc2CC1CCOc1ccc(Cl)cc1Cl (stereo not shown) [Compound 9] | 5 to 20 µM |
| Cc1ccnc(NS(=O)(=O)c2ccc3c(c2)CC(CCOc2ccc(Cl)cc2Cl)C(=O)N3)n1 (stereo not shown) [Compound 10, 3-[2-(2,4-Dichloro-phenoxy)-ethyl]-2-oxo-1,2,3,4-tetrahydro-quinoline-6-sulfonic acid (4-methyl-pyrimidin-2-yl)-amide] | 5 to 20 µM |
| Cc1nnc(NS(=O)(=O)c2ccc3c(c2)CC(CCOc2ccc(Cl)cc2Cl)C(=O)N3)s1 (stereo not shown) [Compound 11, 3-[2-(2,4-Dichloro-phenoxy)-ethyl]-2-oxo-1,2,3,4-tetrahydro-quinoline-6-sulfonic acid (5-methyl-[1,3,4]thiadiazol-2-yl)-amide] | 5 to 20 µM |
| O=C1Nc2ccc(S(=O)(=O)Nc3nc(-c4ccccc4)ns3)cc2CC1CCOc1ccc(Cl)cc1Cl (stereo not shown) [Compound 12] | 5 to 20 µM |
| COc1nc(NS(=O)(=O)c2ccc3c(c2)CC(CCOc2ccc(Cl)cc2Cl)C(=O)N3)ns1 (stereo not shown) [Compound 13] | 5 to 20 µM |
| O=C1Nc2ccc(S(=O)(=O)Nc3nc[nH]n3)cc2CC1CCOc1ccc(Cl)cc1Cl (stereo not shown) [Compound 14] | 5 to 20 µM |
| O=C1Nc2ccc(S(=O)(=O)Nc3ncccn3)cc2CC1CCOc1ccc(Cl)cc1Cl (stereo not shown) [Compound 15] | 5 to 20 µM |
| Cc1csc(NS(=O)(=O)c2ccc3c(c2)CC(CCOc2ccc(Cl)cc2Cl)C(=O)N3)n1 (stereo not shown) [Compound 16] | 5 to 20 µM |
